Test [1] has as its system ICAM-1, P-selectin and VCAM-1 on HBMEC. The test is described as follows: Immunofluorescence staining of HBMEC after T cell-rolling. It is filed as cell-based, human. As for the experimental part:
After rolling and adhesion of T cells on HBMEC or HUVEC under flow conditions, endothelial cells were fixed using 150 μl of 4% paraformaldehyde solution (#P-6148, Sigma-Aldrich) for 30 min at 4° C. μ-slides were rinsed with 150 μl of D-PBS and subjected to immunofluorescence staining. HBMEC were first blocked with 150 μl of avidin blocking reagent (#PHA-70871, reagent 1, Dianova) for 10 min at room temperature, washed with 150 μl of D-PBS followed by incubation with 150 μl of biotin blocking reagent (#PHA-70871, reagent 2, Dianova). All following staining procedures were performed in 150 μl of D-PBS with 5% FBS at room temperature in the dark, and washing steps were done in 150 μl of D-PBS. μ-slides were incubated with 5 μg/ml polyclonal rabbit anti-human VCAM-1 (#106777, abcam) for 1 h. After washing, 20 μg/ml goat anti-rabbit IgG-DyLight350 was added for 1 h followed by washing and incubation with 15 μg/ml mouse anti-human P-selectin IgG1 (#BBA30, R&D Systems) for 2 h. After washing, goat anti-mouse IgG-Alexa488 (1:100) (#A10680, Invitrogen) was added for 1 h. […] VCAM-1 staining was monitored with a CFL EPI-FL Filter Block UV-2A (#MBE41200, Nikon), P-selectin staining with a CFL EPI-FL Filter Block GFP-B (#MBE44740, Nikon), and ICAM-1 staining with an EPI-FL Filter Block Cy3 (#MXU96213, Nikon). […]

In test [2] the test system is patients. The test is described as follows: Clinical studies of Blinatumomab in B-NHL and B-precursor ALL. It is filed as in vivo, human. The source says: Various clinical studies evaluating the safety and efficacy of Blinatumomab have been conducted both in B-NHL (Bargou et al. Science. 2008; 321:974-7) and B-precursor ALL (Topp et al. J Clin Oncol. 2011; 29:2493-8). […] These studies established clinical proof of concept for the high therapeutic potential of the bispecific single-chain antibody format in general and of Blinatumomab in special and validated its further development in B-NHL, ALL and CLL. Throughout these studies in B-NHL and B-precursor ALL several pharmacodynamic markers were assessed. […] It was characterized by a swift redistribution after start of infusion and any dose step, i.e. a fast disappearance of circulating T cells within the first 6-12 hours and a subsequent reappearance during the following 2-7 days where high initial B cell-counts correlated with decelerated kinetics of T cell-reappearance (FIG. 1A). This course seemed to be triggered by any significant dose changes of Blinatumomab rather than absolute serum concentrations. In addition, T cell-adhesiveness was measured throughout treatment week 1 by analyzing binding of soluble ICAM-1-Fc fusion proteins to LFA-1 on T cells. […] This finding coincided with T cell-redistribution and supported the concept of Blinatumomab-induced T cell-adhesion to endothelium during redistribution.

Data on one substance can be found in patent US9688760B2, “Anti-leukocyte adhesion for the mitigation of potential adverse events caused by CD3-specific binding domains” (AMGEN RESEARCH (MUNICH) GMBH, priority 2013, dated 2017).

For the substance “Blinatumomab: recombinant CD19×CD3 bispecific scFv antibody consisting of four immunoglobulin variable domains assembled into a single polypeptide chain”, the “surface expression of adhesion molecules on HBMEC” value in test [1] (after T cell-rolling with Blinatumomab-stimulated T cells, 120 min) was “increased surface expression of adhesion molecules ICAM-1, P-selectin and VCAM-1”. In addition, the “cell surface expression of P-selectin on HBMEC” value in test [1] (histamine-stimulated HBMEC, Blinatumomab added, no PPS) was “increased”. Moreover, in test [2] (T cell-redistribution, irrespective of dose level), the “time of disappearance of circulating T cells after start of infusion and any dose step” value was 6 to 12 h. Besides, the “time to return of LFA-1 binding affinity to baseline” value in test [2] (after peak) is at most 5 days. Besides, in test [2] (binding of soluble ICAM-1-Fc to LFA-1 on T cells, treatment week 1), the “time to peak of increased LFA-1 binding affinity to ICAM-1” value was at most 48 h. Also, the “time of reappearance of circulating T cells” value in test [2] (following T cell disappearance) is 2 to 7 days.
